Experiments:
Assay type in all cases: physicochemical
[1] = Oxidation destruction (30% H2O2), related substances by HPLC
Protocol: Oxidation destruction: 50 mg of sample weighted accurately was added into measuring flask of 100 mL, and 10 mL 30% H2O2 was added. After standing at room temperature for 2 hour, the mixture was diluted with mobile phase to scale and shook to be homogeneous, and determined by HPLC.
(§1) HPLC conditions and system applicability: octadecylsilane bonded silica as the filler; 0.01 mol/L of potassium dihydrogen phosphate (adjusted to pH 3.5 by phosphoric acid)-methanol-acetonitrile (80:15:5) as the mobile phase; detection wavelength was 240 nm; the number of theoretical plates should be not less than 2000, calculated according to the peak of lenalidomide. The resolution of the peak of 3-(4-amino-1-oxo-1,3-dihydro-2H-isoindole-2-yl)-piperidine-2,6-dione from the peaks of adjacent impurities should meet requirements.
Determination method: sample was dissolved in mobile phase to be the solution containing 0.5 mg per 1 mL. 20 μL of such solution was injected into liquid chromatograph and chromatogram was recorded until fourfold the retention time of major component peak. If there were impurities peaks in the chromatogram of sample solution, total impurities and sole impurity were calculated by normalization method on the basis of peak area.

[2] = Accelerated test (40° C., 75% relative humidity); settings: 40° C. and 75% relative humidity
Excerpt: The conditions and methods of related substance test involved in this invention were in accordance with HPLC (Appendix VD of Chinese Pharmacopoeia Edition 2005).
as §1, with “Chromatographic” for “HPLC”, “3-(4-amino-1-oxo-1,3-dihydro-2H-isoindole-2-yl)-piperidine-2,6-dione.” for “lenalidomide.”
(§2) The raw material of Polymorph I of 3-(4-amino-1-oxo-1,3-dihydro-2H-isoindole-2-yl)-piperidine-2,6-dione (hemihydrate) was hermetically packed in plastic bags of polyethylene film and put in thermostatic and humidostatic incubator at 40±2° C. and 75±5% relative humidity for six months. Sample was tested at the end of the 1st, 2nd, 3rd and 6th month respectively and the results were contrasted with that of the zeroth month. Results were listed in Tab. 5. After accelerated test at 40° C. for six months, the X-ray powder diffraction pattern was shown in FIG. 11; DSC diagram was in FIG. 12-1; TGA diagram was in FIG. 12-2
as §2, with “Polymorph II” for “Polymorph I”, “3-(4-amino-1-oxo-1,3-dihydro-2H-isoindole-2-yl)-piperidine-2,6-dione” for “3-(4-amino-1-oxo-1,3-dihydro-2H-isoindole-2-yl)-piperidine-2,6-dione (hemihydrate)”, “Tab. 10.” for “Tab. 5.”, “FIG. 22;” for “FIG. 11;”, “FIG. 23-1;” for “FIG. 12-1;”, “FIG. 23-2” for “FIG. 12-2”
as §2, with “Polymorph III” for “Polymorph I”, “3-(4-amino-1-oxo-1,3-dihydro-2H-isoindole-2-yl)-piperidine-2,6-dione” for “3-(4-amino-1-oxo-1,3-dihydro-2H-isoindole-2-yl)-piperidine-2,6-dione (hemihydrate)”, “Tab. 15.” for “Tab. 5.”, “FIG. 33;” for “FIG. 11;”, “FIG. 34-1;” for “FIG. 12-1;”, “FIG. 34-2” for “FIG. 12-2”

[3] = High humidity test (room temperature, 75±5% relative humidity); settings: for Change of appearance and content (in words) / Moisture absorption (in words): high humidity test, summary; for Appearance / Content / Weight gain of moisture absorption: room temperature, 75±5% relative humidity
Protocol: (§3) The raw material of Polymorph 1 of 3-(4-amino-1-oxo-1,3-dihydro-2H-isoindole-2-yl)-piperidine-2,6-dione (hemihydrate) was distributed homogeneously in open petri dish with thickness of the raw material not more than 5 mm and put into thermostatic and humidostatic incubator at room temperature (about 25° C.) and 75±5% relative humidity. Sample was tested at the 5th and 10th day respectively and the results were contrasted with that of the Day 0. Results were listed in Tab. 4. After high humidity test of 75±5% relative humidity for 10 days, the X-ray powder diffraction pattern was shown in FIG. 9; DSC diagram was in FIG. 10-1; TGA diagram was in FIG. 10-2.
as §3, with “Polymorph II” for “Polymorph 1”, “3-(4-amino-1-oxo-1,3-dihydro-2H-isoindole-2-yl)-piperidine-2,6-dione” for “3-(4-amino-1-oxo-1,3-dihydro-2H-isoindole-2-yl)-piperidine-2,6-dione (hemihydrate)”, “Tab. 9.” for “Tab. 4.”, “FIG. 20;” for “FIG. 9;”, “FIG. 21-1;” for “FIG. 10-1;”, “FIG. 21-2.” for “FIG. 10-2.”
as §3, with “Polymorph III” for “Polymorph 1”, “3-(4-amino-1-oxo-1,3-dihydro-2H-isoindole-2-yl)-piperidine-2,6-dione” for “3-(4-amino-1-oxo-1,3-dihydro-2H-isoindole-2-yl)-piperidine-2,6-dione (hemihydrate)”, “Tab. 14.” for “Tab. 4.”, “FIG. 31;” for “FIG. 9;”, “FIG. 32-1;” for “FIG. 10-1;”, “FIG. 32-2.” for “FIG. 10-2.”

[4] = Observation test of long-term sample storage (crystal transformation); settings: long-term sample storage in high humidity; DSC scanning
[5] = 30% H2O2, room temperature, 2 hour

SMILES: Nc1cccc2c1CN(C1CCC(=O)NC1=O)C2=O (single isomer, unassigned) [Polymorph I, 3-(4-amino-1-oxo-1,3-dihydro-2H-isoindole-2-yl)-piperidine-2,6-dione]
- Major impurity, peak tR5.649-5.660 [1, 5]: 0.09%
- Major impurity, peak tR10.372-10.401 [1, 5]: 0.03%
- Major impurity, peak tR32.279-32.318 [1, 5]: 0.01%
- Major impurity, peak tR35.063-35.098 [1, 5]: 0.02%
- Total impurities generated by oxidation destruction [1, 5]: impurities: 0.16%
- Chemical stability (in words) ([1]; oxidating condition / oxidation destroy experiment): better stability
- Appearance ([2]; 0 months): Off-white powder
- Content ([2]; 0 months): 99.87%
- Related substance ([2]; 0 months): 0.05%
- Appearance ([2]; 1 month): Off-white powder
- Content ([2]; 1 month): 99.85%
- Related substance ([2]; 1 month): 0.05%
- Appearance ([2]; 2 months): Off-white powder
- Content ([2]; 2 months): 99.81%
- Related substance ([2]; 2 months): 0.05%
- Appearance ([2]; 3 months): Off-white powder
- Content ([2]; 3 months): 99.78%
- Related substance ([2]; 3 months): 0.06%
- Appearance ([2]; 6 months): Off-white powder
- Content ([2]; 6 months): 99.75%
- Related substance ([2]; 6 months): 0.07%
- Change of appearance and content (in words) [3]: few obvious change
- Moisture absorption (in words) [3]: very slight moisture absorption
- Appearance ([3]; 0 days): off-white powder
- Content ([3]; 0 days): 99.87%
- Appearance ([3]; 5 days): off-white powder
- Content ([3]; 5 days): 99.85%
- Weight gain of moisture absorption ([3]; 5 days): 0.65%
- Appearance ([3]; 10 days): off-white powder
- Content ([3]; 10 days): 99.85%
- Weight gain of moisture absorption ([3]; 10 days): 0.66%

SMILES: Nc1cccc2c1CN(C1CCC(=O)NC1=O)C2=O (single isomer, unassigned) [Polymorph II, 3-(4-amino-1-oxo-1,3-dihydro-2H-isoindole-2-yl)-piperidine-2,6-dione]
- Crystal transformation [4]: a small amount of Polymorph II had transformed to Polymorph I
- Appearance ([2]; 0 months): off-white powder
- Content ([2]; 0 months): 99.89%
- Related substance ([2]; 0 months): 0.09%
- Appearance ([2]; 1 month): off-white powder
- Content ([2]; 1 month): 99.85%
- Related substance ([2]; 1 month): 0.09%
- Appearance ([2]; 2 months): off-white powder
- Content ([2]; 2 months): 99.77%
- Related substance ([2]; 2 months): 0.10%
- Appearance ([2]; 3 months): off-white powder
- Content ([2]; 3 months): 99.72%
- Related substance ([2]; 3 months): 0.10%
- Appearance ([2]; 6 months): off-white powder
- Content ([2]; 6 months): 99.68%
- Related substance ([2]; 6 months): 0.12%
- Change of appearance and content (in words) [3]: few obvious change
- Moisture absorption (in words) [3]: lower moisture absorption
- Appearance ([3]; 0 days): off-white powder
- Content ([3]; 0 days): 99.89%
- Appearance ([3]; 5 days): off-white powder
- Content ([3]; 5 days): 99.87%
- Weight gain of moisture absorption ([3]; 5 days): 1.33%
- Appearance ([3]; 10 days): off-white powder
- Content ([3]; 10 days): 99.87%
- Weight gain of moisture absorption ([3]; 10 days): 2.15%

SMILES: Nc1cccc2c1CN(C1CCC(=O)NC1=O)C2=O (single isomer, unassigned) [Polymorph III, 3-(4-amino-1-oxo-1,3-dihydro-2H-isoindole-2-yl)-piperidine-2,6-dione]
- Crystal transformation [4]: a small amount of Polymorph III had transformed to Polymorph I
- Appearance ([2]; 0 months): off-white powder
- Content ([2]; 0 months): 99.86%
- Related substance ([2]; 0 months): 0.07%
- Appearance ([2]; 1 month): off-white powder
- Content ([2]; 1 month): 99.81%
- Related substance ([2]; 1 month): 0.07%
- Appearance ([2]; 2 months): off-white powder
- Content ([2]; 2 months): 99.76%
- Related substance ([2]; 2 months): 0.07%
- Appearance ([2]; 3 months): off-white powder
- Content ([2]; 3 months): 99.71%
- Related substance ([2]; 3 months): 0.08%
- Appearance ([2]; 6 months): off-white powder
- Content ([2]; 6 months): 99.62%
- Related substance ([2]; 6 months): 0.08%
- Change of appearance and content (in words) [3]: few obvious change
- Moisture absorption (in words) [3]: lower moisture absorption
- Appearance ([3]; 0 days): off-white powder
- Content ([3]; 0 days): 99.86%
- Appearance ([3]; 5 days): off-white powder
- Content ([3]; 5 days): 99.83%
- Weight gain of moisture absorption ([3]; 5 days): 1.25%
- Appearance ([3]; 10 days): off-white powder
- Content ([3]; 10 days): 99.82%
- Weight gain of moisture absorption ([3]; 10 days): 1.37%

From patent publication US9101620B2, “Polymorph of 3-(substituteddihydroisoindolinone-2-yl)-2,6-dioxopiperidine, and pharmaceutical compositions thereof” (Nanjing Cavendish Bio-Engineering Technology Co., Ltd., priority 2009, dated 2015)
